Laboratory results as given in article PMC8150835, “An Smp43-Derived Short-Chain α-Helical Peptide Displays a Unique Sequence and Possesses Antimicrobial Activity against Both Gram-Positive and Gram-Negative Bacteria” (Toxins, 2021).
Where a SMILES comes first, the peptide text is derived from it.

Legend:
Assay type in all cases: cell-based
[1] = test system: Acinetobacter baumannii ATCC19606; experiment: MIC determination (broth microdilution); conditions: MHB, 5 × 10^5 CFU/mL, peptide 0.625 to 40 μg/mL, 37 °C, 18 h, OD 630 nm
Description: (§1) The antimicrobial activities of the peptides were tested against S. aureus ATCC29213, E. faecalis ATCC29212, E. coli ATCC25922, K. pneumoniae ATCC700603, P. aeruginosa ATCC27853 and A. baumannii ATCC19606. All these strains were purchased from the China Center of Type Culture Collection (CCTCC).
(§2) The antimicrobial activities of the peptides were determined as previously described. Briefly, the bacteria were incubated at 37 °C and 150 rpm until the log phase of growth. Next, the bacteria were diluted with Mueller-Hinton broth (MHB, Oxoid, UK) and prepared in a clear round-bottom polypropylene 96-well microtiter plate to achieve a final concentration of 5 × 10^5 colony-forming unit (CFU)/mL. Twofold serial dilutions of the peptides were added into each well with the concentrations ranging from 0.625 to 40 μg/mL. The mixed peptides and cells were cultured at 37 °C and 150 rpm for 18 h, and the optical density (OD) was measured at 630 nm. The minimum inhibitory concentration was defined as the lowest peptide concentration with no detectable bacterial growth.

[2] = test system: Klebsiella pneumoniae ATCC700603; experiment: MIC determination (broth microdilution); conditions: MHB, 5 × 10^5 CFU/mL, peptide 0.625 to 40 μg/mL, 37 °C, 18 h, OD 630 nm
Description: as §1, §2

[3] = test system: Staphylococcus aureus ATCC29213; experiment: MIC determination (broth microdilution); conditions: MHB, 5 × 10^5 CFU/mL, peptide 0.625 to 40 μg/mL, 37 °C, 18 h, OD 630 nm
Description: as §1, §2

[4] = test system: Pseudomonas aeruginosa ATCC27853; experiment: MIC determination (broth microdilution); conditions: MHB, 5 × 10^5 CFU/mL, peptide 0.625 to 40 μg/mL, 37 °C, 18 h, OD 630 nm
Description: as §1, §2

[5] = test system: Escherichia coli ATCC25922; experiment: MIC determination (broth microdilution); conditions: MHB, 5 × 10^5 CFU/mL, peptide 0.625 to 40 μg/mL, 37 °C, 18 h, OD 630 nm
Description: as §1, §2

[6] = test system: Enterococcus faecalis ATCC29212; experiment: MIC determination (broth microdilution); conditions: MHB, 5 × 10^5 CFU/mL, peptide 0.625 to 40 μg/mL, 37 °C, 18 h, OD 630 nm
Description: as §1, §2

human red blood cells = experiment: Hemolytic activity determination; conditions: 2% (v/v) hRBCs, peptide 12.5-200 μg/mL, 37 °C, 1 h, absorbance 540 nm; 1% Triton X-100 = 100%; three independent experiments
Description: The hemolytic activities of the peptides were determined against human red blood cells (hRBCs). Briefly, fresh hRBCs anticoagulated with sodium citrate were rinsed with 0.9% sodium chloride by centrifugation (1000× g, 5 min). Then, the cells were diluted to a final concentration of 2% (v/v) and prepared in a clear 96-well polypropylene microtiter plate. Next, the samples were mixed with a series of concentrations of the peptide (12.5, 25, 50, 100 and 200 μg/mL) and incubated at 37 °C for 1 h. After that, the samples were centrifuged (2000× g, 10 min), and the absorbances of the supernatants were measured at 540 nm to evaluate the release of hemoglobin. HRBCs treated with 1% Triton X-100 or 0.9% sodium chloride were taken as 100% and 0% hemolysis, respectively.

## CC[C@H](C)[C@H](NC(=O)[C@H](CCCCN)NC(=O)[C@H](CCC(=O)O)NC(=O)[C@H](C)NC(=O)[C@@H](NC(=O)[C@H](Cc1ccccc1)NC(=O)[C@H](CC(N)=O)NC(=O)[C@H](CCCCN)NC(=O)[C@H](C)NC(=O)[C@H](C)NC(=O)[C@H](CC(N)=O)NC(=O)[C@H](CC(C)C)NC(=O)[C@H](C)NC(=O)[C@@H](N)CCC(N)=O)C(C)C)C(N)=O [Smp43(25-38)] (H-QALNAAKNFVAEKI-NH2)
[1]
  MIC: > 40 µg/mL
[2]
  MIC: > 40 µg/mL
[3]
  MIC: > 40 µg/mL
[4]
  MIC: > 40 µg/mL
[5]
  MIC: > 40 µg/mL
[6]
  MIC: > 40 µg/mL
Human red blood cells
  HC10: the concentration of the peptide that causes 10% hemolysis of human red blood cells: > 200 µg/mL

## CC[C@H](C)[C@H](NC(=O)[C@H](CCCCN)NC(=O)[C@H](CCC(=O)O)NC(=O)[C@H](C)NC(=O)[C@@H](NC(=O)[C@H](Cc1ccccc1)NC(=O)[C@H](CC(N)=O)NC(=O)[C@H](CCCCN)NC(=O)[C@H](C)NC(=O)[C@H](C)N)C(C)C)C(=O)NCC(=O)N[C@@H](C)C(=O)N[C@H](C(=O)N1CCC[C@H]1C(N)=O)[C@@H](C)O [Smp43(29-42)] (H-AAKNFVAEKIGATP-NH2)
[1]
  MIC: > 40 µg/mL
[2]
  MIC: > 40 µg/mL
[3]
  MIC: > 40 µg/mL
[4]
  MIC: > 40 µg/mL
[5]
  MIC: > 40 µg/mL
[6]
  MIC: > 40 µg/mL
Human red blood cells
  HC10: the concentration of the peptide that causes 10% hemolysis of human red blood cells: > 200 µg/mL

## CC(C)C[C@H](NC(=O)[C@H](C)NC(=O)[C@H](CCC(N)=O)NC(=O)[C@H](CO)NC(=O)[C@H](CCCCN)NC(=O)[C@H](CC(C)C)NC(=O)[C@H](C)NC(=O)[C@H](CCCCN)NC(=O)[C@@H](N)C(C)C)C(=O)N[C@@H](CC(N)=O)C(=O)N[C@@H](C)C(=O)N[C@@H](C)C(=O)N[C@@H](CCCCN)C(=O)N[C@@H](CC(N)=O)C(N)=O [Smp43(19-32)] (H-VKALKSQALNAAKN-NH2)
[1]
  MIC: > 40 µg/mL
[2]
  MIC: > 40 µg/mL
[3]
  MIC: > 40 µg/mL
[4]
  MIC: > 40 µg/mL
[5]
  MIC: > 40 µg/mL
[6]
  MIC: > 40 µg/mL
Human red blood cells
  HC10: the concentration of the peptide that causes 10% hemolysis of human red blood cells: > 200 µg/mL

## CC[C@H](C)[C@H](NC(=O)[C@H](CCCCN)NC(=O)CN)C(=O)N[C@@H](Cc1c[nH]c2ccccc12)C(=O)N[C@@H](CC(N)=O)C(=O)N[C@@H](CO)C(=O)N[C@@H](CCC(=O)O)C(=O)N1CCC[C@H]1C(=O)N[C@H](C(=O)N[C@@H](CCCCN)C(=O)N[C@@H](C)C(=O)N[C@@H](CC(C)C)C(=O)N[C@@H](CCCCN)C(=O)N[C@@H](CO)C(N)=O)C(C)C [Smp43(11-24)] (H-GKIWNSEPVKALKS-NH2)
[1]
  MIC: > 40 µg/mL
[2]
  MIC: > 40 µg/mL
[3]
  MIC: > 40 µg/mL
[4]
  MIC: > 40 µg/mL
[5]
  MIC: > 40 µg/mL
[6]
  MIC: > 40 µg/mL
Human red blood cells
  HC10: the concentration of the peptide that causes 10% hemolysis of human red blood cells: > 200 µg/mL

## CC[C@H](C)[C@H](NC(=O)[C@H](CCCCN)NC(=O)CNC(=O)[C@H](C)NC(=O)[C@@H](N)[C@@H](C)O)C(=O)N[C@@H](Cc1c[nH]c2ccccc12)C(=O)N[C@@H](CC(N)=O)C(=O)N[C@@H](CO)C(=O)N[C@@H](CCC(=O)O)C(=O)N1CCC[C@H]1C(=O)N[C@H](C(=O)N[C@@H](CCCCN)C(=O)N[C@@H](C)C(=O)N[C@@H](CC(C)C)C(N)=O)C(C)C [Smp43(9-22)] (H-TAGKIWNSEPVKAL-NH2)
[1]
  MIC: > 40 µg/mL
[2]
  MIC: > 40 µg/mL
[3]
  MIC: > 40 µg/mL
[4]
  MIC: > 40 µg/mL
[5]
  MIC: > 40 µg/mL
[6]
  MIC: > 40 µg/mL
Human red blood cells
  HC10: the concentration of the peptide that causes 10% hemolysis of human red blood cells: > 200 µg/mL

## CC(C)C[C@H](NC(=O)[C@H](C)NC(=O)[C@H](CCC(N)=O)NC(=O)[C@H](CO)NC(=O)[C@@H](N)CCCCN)C(=O)N[C@@H](CC(N)=O)C(=O)N[C@@H](C)C(=O)N[C@@H](C)C(=O)N[C@@H](CCCCN)C(=O)N[C@@H](CC(N)=O)C(=O)N[C@@H](Cc1ccccc1)C(=O)N[C@H](C(=O)N[C@@H](C)C(=O)N[C@@H](CCC(=O)O)C(N)=O)C(C)C [Smp43(23-36)] (H-KSQALNAAKNFVAE-NH2)
[1]
  MIC: > 40 µg/mL
[2]
  MIC: > 40 µg/mL
[3]
  MIC: > 40 µg/mL
[4]
  MIC: > 40 µg/mL
[5]
  MIC: > 40 µg/mL
[6]
  MIC: > 40 µg/mL
Human red blood cells
  HC10: the concentration of the peptide that causes 10% hemolysis of human red blood cells: > 200 µg/mL

## CC(C)C[C@H](NC(=O)[C@H](C)NC(=O)[C@H](CCC(N)=O)NC(=O)[C@H](CO)NC(=O)[C@H](CCCCN)NC(=O)[C@H](CC(C)C)NC(=O)[C@H](C)NC(=O)[C@H](CCCCN)NC(=O)[C@@H](NC(=O)[C@@H]1CCCN1C(=O)[C@@H](N)CCC(=O)O)C(C)C)C(=O)N[C@@H](CC(N)=O)C(=O)N[C@@H](C)C(=O)N[C@@H](C)C(N)=O [Smp43(17-30)] (H-EPVKALKSQALNAA-NH2)
[1]
  MIC: > 40 µg/mL
[2]
  MIC: > 40 µg/mL
[3]
  MIC: > 40 µg/mL
[4]
  MIC: > 40 µg/mL
[5]
  MIC: > 40 µg/mL
[6]
  MIC: > 40 µg/mL
Human red blood cells
  HC10: the concentration of the peptide that causes 10% hemolysis of human red blood cells: > 200 µg/mL

## CC[C@H](C)[C@H](NC(=O)[C@H](CCCCN)NC(=O)CNC(=O)[C@H](C)NC(=O)[C@@H](NC(=O)[C@H](CCCCN)NC(=O)[C@@H](N)CCCCN)[C@@H](C)O)C(=O)N[C@@H](Cc1c[nH]c2ccccc12)C(=O)N[C@@H](CC(N)=O)C(=O)N[C@@H](CO)C(=O)N[C@@H](CCC(=O)O)C(=O)N1CCC[C@H]1C(=O)N[C@H](C(=O)N[C@@H](CCCCN)C(N)=O)C(C)C [Smp43(7-20)] (H-KKTAGKIWNSEPVK-NH2)
[1]
  MIC: > 40 µg/mL
[2]
  MIC: > 40 µg/mL
[3]
  MIC: > 40 µg/mL
[4]
  MIC: > 40 µg/mL
[5]
  MIC: > 40 µg/mL
[6]
  MIC: > 40 µg/mL
Human red blood cells
  HC10: the concentration of the peptide that causes 10% hemolysis of human red blood cells: > 200 µg/mL

## CC(C)C[C@H](NC(=O)[C@H](C)NC(=O)[C@H](CCC(N)=O)NC(=O)[C@H](CO)NC(=O)[C@H](CCCCN)NC(=O)[C@H](CC(C)C)NC(=O)[C@H](C)NC(=O)[C@H](CCCCN)NC(=O)[C@@H](NC(=O)[C@@H]1CCCN1C(=O)[C@H](CCC(=O)O)NC(=O)[C@H](CO)NC(=O)[C@@H](N)CC(N)=O)C(C)C)C(=O)N[C@@H](CC(N)=O)C(N)=O [Smp43(15-28)] (H-NSEPVKALKSQALN-NH2)
[1]
  MIC: > 40 µg/mL
[2]
  MIC: > 40 µg/mL
[3]
  MIC: > 40 µg/mL
[4]
  MIC: > 40 µg/mL
[5]
  MIC: > 40 µg/mL
[6]
  MIC: > 40 µg/mL
Human red blood cells
  HC10: the concentration of the peptide that causes 10% hemolysis of human red blood cells: > 200 µg/mL

## CC(C)C[C@H](NC(=O)[C@H](C)N)C(=O)N[C@@H](CCCCN)C(=O)N[C@@H](CO)C(=O)N[C@@H](CCC(N)=O)C(=O)N[C@@H](C)C(=O)N[C@@H](CC(C)C)C(=O)N[C@@H](CC(N)=O)C(=O)N[C@@H](C)C(=O)N[C@@H](C)C(=O)N[C@@H](CCCCN)C(=O)N[C@@H](CC(N)=O)C(=O)N[C@@H](Cc1ccccc1)C(=O)N[C@H](C(N)=O)C(C)C [Smp43(21-34)] (H-ALKSQALNAAKNFV-NH2)
[1]
  MIC: > 40 µg/mL
[2]
  MIC: > 40 µg/mL
[3]
  MIC: > 40 µg/mL
[4]
  MIC: > 40 µg/mL
[5]
  MIC: > 40 µg/mL
[6]
  MIC: > 40 µg/mL
Human red blood cells
  HC10: the concentration of the peptide that causes 10% hemolysis of human red blood cells: > 200 µg/mL

## CC[C@H](C)[C@H](N)C(=O)N[C@@H](Cc1c[nH]c2ccccc12)C(=O)N[C@@H](CC(N)=O)C(=O)N[C@@H](CO)C(=O)N[C@@H](CCC(=O)O)C(=O)N1CCC[C@H]1C(=O)N[C@H](C(=O)N[C@@H](CCCCN)C(=O)N[C@@H](C)C(=O)N[C@@H](CC(C)C)C(=O)N[C@@H](CCCCN)C(=O)N[C@@H](CO)C(=O)N[C@@H](CCC(N)=O)C(=O)N[C@@H](C)C(N)=O)C(C)C [Smp43(13-26)] (H-IWNSEPVKALKSQA-NH2)
[1]
  MIC: > 40 µg/mL
[2]
  MIC: > 40 µg/mL
[3]
  MIC: > 40 µg/mL
[4]
  MIC: > 40 µg/mL
[5]
  MIC: > 40 µg/mL
[6]
  MIC: > 40 µg/mL
Human red blood cells
  HC10: the concentration of the peptide that causes 10% hemolysis of human red blood cells: > 200 µg/mL
